The experiment has as its target T1, GRM7 (Homo sapiens, UniProt Q14831).
T1 construct: purchased Promega (in-house HiBiT-GPCR construct library, NanoBRET)
Nature of the experiment: NanoBRET screen HiBiT-GRM7 in HEK293. The class given is binding. On the procedure: Each tracer candidate was screened across the entire library of HiBiT-GPCR constructs using NanoBRET as the detection modality. As depicted in Figure 4A, the specificity of interactions was evaluated through decrease in BRET due to competitive displacement of a bound tracer by excess parental compound. Each tracer was analyzed for binding to each HiBiT-GPCR fusion in the absence and in the presence of competing parental compound. Briefly, HEK293 cells were transfected with HiBiT-GPCR constructs diluted into promoterless DNA to reduce expression and maximize translocation to the cell surface. Each tracer candidate was then screened at concentrations of 1 μM and 0.1 μM across cells expressing these fusions. Cells were treated for 1.5 h with tracer either alone or in the presence of 20 μM competing parental compound (i.e., control). BRET was measured upon addition of purified LgBiT and subsequent complementation with HiBiT genetically fused to a GPCR. The specificity of interactions was assessed through a decrease in BRET signal due to competitive displacement of the bound tracer. To further gauge the robustness of these interactions, the fold response over the control (i.e., BRETtracer/BRETcontrol) was calculated. We chose a 1.5-fold response, which translates to ≥7-fold signal over noise as the minimal threshold required to score an interaction as positive.
HiBiT-GPCR DNA constructs were diluted in 10 mM Tris pH 8 to a final concentration of 0.01 μg/μL, arrayed in 96-well plates and stored at −20 °C. For transfection, HEK293 cells were suspended in Opti-MEM (without phenol red) supplemented with 2% fetal bovine serum (Seradigm) and 100 units/mL penicillin–streptomycin (Gibco) at a final concentration of 220,000 cells/mL and dispensed into white 96-well plates at 90 μL/well. Subsequent transfections and screens were carried using an Agilent Bravo Automated Liquid Handling Platform. First, the 96-well HiBiT DNA arrays were diluted 25-fold in Opti-MEM (without serum or phenol red) to a final concentration of 0.0004 μg/μL and 20 μL of the diluted DNAs were transferred into new 96-well plates. Next, promoterless carrier DNA (1 μg/μL) was diluted 25-fold (0.04 μg/μL) and then dispensed into the diluted arrays at 20 μL/well. Following brief mixing, Viafect transfection reagent (Promega) diluted 16-fold into Opti-MEM was dispensed into the plates at 40 μL/well. After mixing by pipetting, plates were incubated for 10 min on the pipetting station deck. The DNA-transfection reagent complexes were then added to plates containing cells. To facilitate the screen, 10 μL of DNA-transfection reagent complexes were added in duplicates to the top 4 and bottom 4 rows, resulting in two identical 48-well arrays per plate. Plates with transfected cells were incubated for 18–20 h at 37 °C/5% CO2. A screen of each tracer across the entire library using two different concentrations requires duplicate plates of transfected cells. Depending on the number of tracers being screened, transfections can be scaled up using the same ratios. The next day, for each tracer, four 20× screening solutions in tracer dilution buffer (Promega) were prepared: two duplicates at final concentration of 20 μM and two duplicates at a final concentration of 2 μM. […] The four resulting solutions were diluted 4-fold in Opti-MEM without serum or phenol red to generate 5× solutions (5 µM and 0.5 µM tracer +/− 100 μM competing compound). To screen the library, a BioTek MultiFlo FX liquid dispenser was used to dispense 22.5 µL of tracer solution to the top 4 rows and 22.5 µL tracer + competing compound solution to the 4 bottom rows. Plates were briefly mixed on an orbital shaker and incubated for 1.5 h at room temperature. […] Plates were briefly mixed on an orbital shaker and incubated for 15 min to allow complementation.
A general note: BRET reads energy transfer from a luciferase to a nearby fluorophore.

T1 sequence (Q14831 35-915): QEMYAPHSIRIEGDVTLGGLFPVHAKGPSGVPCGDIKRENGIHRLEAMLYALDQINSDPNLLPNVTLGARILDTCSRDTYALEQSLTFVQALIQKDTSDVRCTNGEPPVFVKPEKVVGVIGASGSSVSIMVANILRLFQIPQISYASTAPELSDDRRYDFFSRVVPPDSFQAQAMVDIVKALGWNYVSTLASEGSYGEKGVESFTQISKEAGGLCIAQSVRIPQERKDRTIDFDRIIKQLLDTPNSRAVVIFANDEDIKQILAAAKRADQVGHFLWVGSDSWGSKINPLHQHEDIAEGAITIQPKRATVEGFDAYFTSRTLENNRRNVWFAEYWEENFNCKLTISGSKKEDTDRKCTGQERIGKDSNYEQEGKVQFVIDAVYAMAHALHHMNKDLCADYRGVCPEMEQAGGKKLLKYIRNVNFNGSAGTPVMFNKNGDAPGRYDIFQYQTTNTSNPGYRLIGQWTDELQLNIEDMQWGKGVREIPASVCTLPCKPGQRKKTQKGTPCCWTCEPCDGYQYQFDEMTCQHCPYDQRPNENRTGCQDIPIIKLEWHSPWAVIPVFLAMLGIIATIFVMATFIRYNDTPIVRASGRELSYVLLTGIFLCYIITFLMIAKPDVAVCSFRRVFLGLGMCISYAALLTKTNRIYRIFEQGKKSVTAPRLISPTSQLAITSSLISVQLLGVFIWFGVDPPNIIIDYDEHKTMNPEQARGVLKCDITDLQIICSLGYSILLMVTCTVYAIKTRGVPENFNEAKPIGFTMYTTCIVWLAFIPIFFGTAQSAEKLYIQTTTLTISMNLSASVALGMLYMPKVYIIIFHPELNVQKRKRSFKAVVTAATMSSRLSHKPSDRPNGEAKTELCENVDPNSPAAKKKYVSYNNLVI

For the compound `O=C(CCc1ccc2n1[B-](F)(F)[N+]1=C(c3ccc[nH]3)C=CC1=C2)NCc1ccc(C(=O)NCCOCCC(=O)N[C@@H]2CC[C@@]3(O)[C@H]4Cc5ccc(O)c6c5[C@@]3(CCN4CC3CC3)[C@H]2O6)cc1` [Naltrexone-3-NB590], the “NanoBRET Fold Response” value is 1.01 (GRM7, tracer 0.1μM) and 0.93 (GRM7, tracer 1μM).
In the case of `CN1CCN(C2=Nc3cc(Cl)ccc3N(CC(=O)NCCOCCOCCOCCOCCNC(=O)CCc3ccc4n3[B-](F)(F)[N+]3=C(c5ccc[nH]5)C=CC3=C4)c3ccccc32)CC1` [Clozapine-c-2-NB590], the “NanoBRET Fold Response” value is, setting by setting: (GRM7, 0.1μM tracer) 1.00; (GRM7, 1μM tracer) 1.03.
For `O=C(CCOCCOCCOCCOCCNC(=O)CCc1ccc2n1[B-](F)(F)[N+]1=C(c3ccc[nH]3)C=CC1=C2)NCCCN1CCN(C2=Nc3cc(Cl)ccc3Nc3ccccc32)CC1` [Clozapine-a-2-NB590] the same measures were 0.95 and 0.92.
Consider `CCOC(=O)c1cc(C#N)c(N2CCC(C(=O)NS(=O)(=O)Cc3ccccc3/C=C/C(=O)NCCNC(=O)CCc3ccc4n3[B-](F)(F)[N+]3=C(c5ccc[nH]5)C=CC3=C4)CC2)nc1C` [AZD1283-1-NB590], for which the “NanoBRET Fold Response” value is, setting by setting: (GRM7, 0.1μM) 0.98; (GRM7, 1μM) 1.05.
As to `COc1ccc2[nH]c(-c3ccc(CNC(=O)CCOCCOCCOCCOCCNC(=O)CCc4ccc5n4[B-](F)(F)[N+]4=C(c6ccc[nH]6)C=CC4=C5)cc3)c(CCNC(C)=O)c2n1` [AzomelatoninICO9-2-NB590], the “NanoBRET Fold Response” value by setting is: (0.1μM tracer) 1.03; (1μM tracer) 1.08.
Consider `CCCn1c(=O)c2[nH]c(-c3ccc(OCC(=O)NCCNC(=O)CCOCCNC(=O)c4ccc(CNC(=O)CCc5ccc6n5[B-](F)(F)[N+]5=C(c7ccc[nH]7)C=CC5=C6)cc4)cc3)nc2n(CCC)c1=O` [XAC-3-NB590], for which the “NanoBRET Fold Response” value worked out at 1.03 (GRM7, tracer 0.1μM) and 1.07 (GRM7, tracer 1μM).
Take `COc1ccccc1N1CCN(CCCCN2C(=O)c3ccc(CNC(=O)CCOCCNC(=O)c4ccc(CNC(=O)CCc5ccc6n5[B-](F)(F)[N+]5=C(c7ccc[nH]7)C=CC5=C6)cc4)cc3C2=O)CC1` [NAN-190-3-NB590]: the “NanoBRET Fold Response” value turned out to be 1.01 (GRM7, tracer 0.1μM) and 0.95 (GRM7, tracer 1μM).
With `O=C(CCc1ccc2n1[B-](F)(F)[N+]1=C(c3ccc[nH]3)C=CC1=C2)NCc1ccc(C(=O)NCCOCCOCCNCC(O)COc2cccc3ccccc23)cc1` (stereo not shown) [Propranolol-3-NB590], the “NanoBRET Fold Response” value by setting is: (GRM7, 0.1μM) 1.00; (GRM7, 1μM) 0.97.
As to `COc1ccc2c(n1)c(CCNC(C)=O)cn2CCNC(=O)CCc1ccc2n1[B-](F)(F)[N+]1=C(c3ccc[nH]3)C=CC1=C2` [Azamelatonin-1-NB590], the “NanoBRET Fold Response” value by setting is: (0.1μM tracer) 1.10; (1μM tracer) 1.16.
For the compound `O=C(CCOCCOCCOCCOCCNC(=O)CCc1ccc2n1[B-](F)(F)[N+]1=C(c3ccc[nH]3)C=CC1=C2)NCCCN1CCN(C2=Nc3ccccc3Oc3ccc(Cl)cc32)CC1` [Loxapine-a-2-NB590], the “NanoBRET Fold Response” value (GRM7, tracer 0.1μM) is 1.07 and the “NanoBRET Fold Response” value (GRM7, tracer 1μM) is 1.12.
Regarding `COc1ccccc1N1CCN(CCCCN2C(=O)c3ccc(CNC(=O)CCOCCOCCOCCOCCNC(=O)CCc4ccc5n4[B-](F)(F)[N+]4=C(c6ccc[nH]6)C=CC4=C5)cc3C2=O)CC1` [NAN-190-2-NB590], the “NanoBRET Fold Response” value (GRM7, tracer 0.1μM) worked out at 1.00.
For `CC(C)N(CC[C@H](c1ccccc1)c1cc(CCNC(=O)c2ccc(CNC(=O)CCc3ccc4n3[B-](F)(F)[N+]3=C(c5ccc[nH]5)C=CC3=C4)cc2)ccc1O)C(C)C` [Tolterodine-BZ-NB590], the “NanoBRET Fold Response” value by setting is: (GRM7, tracer 0.1μM) 0.99; (GRM7, tracer 1μM) 1.02.
For `O=C(CCc1ccc2n1[B-](F)(F)[N+]1=C(c3ccc[nH]3)C=CC1=C2)NCCOCCOCCNC(=O)OCCOCCN1CCN(C2=Nc3ccccc3Sc3ccccc32)CC1` [Quetiapine-a-2-NB590] the same measures were 1.03 and 1.05.
Take `CN1CCN(C2=Nc3cc(Cl)ccc3Nc3ccc(CNC(=O)CCOCCOCCOCCOCCNC(=O)CCc4ccc5n4[B-](F)(F)[N+]4=C(c6ccc[nH]6)C=CC4=C5)cc32)CC1` [Clozapine-b-2-NB590]: the “NanoBRET Fold Response” value runs as follows: (GRM7, 0.1μM tracer) 1.04; (GRM7, 1μM tracer) 0.93.
On to `CC(C)N(CC[C@H](c1ccccc1)c1cc(CCNC(=O)CCOCCOCCOCCOCCNC(=O)CCc2ccc3n2[B-](F)(F)[N+]2=C(c4ccc[nH]4)C=CC2=C3)ccc1O)C(C)C` [Tolterodine-2-NB590], for which the “NanoBRET Fold Response” value was 1.18 (GRM7, tracer 0.1μM) and 0.89 (GRM7, tracer 1μM).
For `Cc1cc2c(s1)Nc1ccccc1N=C2N1CCN(CCCNC(=O)CCOCCOCCOCCOCCNC(=O)CCc2ccc3n2[B-](F)(F)[N+]2=C(c4ccc[nH]4)C=CC2=C3)CC1` [Olanzapine-a-2-NB590], the “NanoBRET Fold Response” value (GRM7, tracer 0.1μM) is 1.00 and the “NanoBRET Fold Response” value (GRM7, tracer 1μM) is given as 1.02.
In the case of `N#CN=C(NCCCOc1cccc(CN2CCCCC2)c1)NCCNC(=O)CCOCCOCCOCCOCCNC(=O)CCc1ccc2n1[B-](F)(F)[N+]1=C(c3ccc[nH]3)C=CC1=C2` [Aminopotentidine-2-NB590], the “NanoBRET Fold Response” value (GRM7, tracer 0.1μM) was 0.98 and the “NanoBRET Fold Response” value (GRM7, tracer 1μM) amounted to 1.05.
For `Cc1nc2n(c(=O)c1CCN1CCC(c3noc4cc(F)ccc34)CC1)CCCC2OC(=O)NCCOCCOCCOCCOCCNC(=O)CCc1ccc2n1[B-](F)(F)[N+]1=C(c3ccc[nH]3)C=CC1=C2` (stereo not shown) [Risperidone-2-NB590] the same measures were 1.00 and 1.00.
For `CN(C)CCC=C1c2ccccc2CCc2ccc(C(=O)NCCNC(=O)CCOCCOCCOCCOCCNC(=O)CCc3ccc4n3[B-](F)(F)[N+]3=C(c5ccc[nH]5)C=CC3=C4)cc21` [Amitriptyline-b-2-NB590] the same measures were 1.09 and 1.00.

For the origin of these results see paper PMC8151276, “An Integrated Approach toward NanoBRET Tracers for Analysis of GPCR Ligand Engagement” (Molecules, 2021).
